Two molecules from patent publication US5731309A, “Substituted heteroalkyleneamine neurokinin antagonists” (Zeneca Limited, priority 1994, dated 1998) can be followed below.

One experiment deals with T1, NK1 receptor (Oryctolagus cuniculus, UniProt G1SEI7).
T1 construct: The left and right branches of the pulmonary artery are isolated from the rest of the lung tissue; from tissue; host or cells: rabbit (male New Zealand white) pulmonary artery ring segments with intact endothelium
Put plainly: Rabbit Pulmonary Artery: NK1 in vitro functional assay (Test C). The following applies: -log molar KB, agonist ASMSP, read-out: pKB in Test C (converted). Also on record: species or system rabbit (male New Zealand white). On the procedure:
Rabbit Pulmonary Artery: NK1 in vitro functional assay (Test C)
Male New Zealand white rabbits are killed by lethal injection (Nembutal, 60 mg/kg into a cannulated ear vein). Heparin, 0.0025 ml/kg of a 1000 U/ml solution, is injected into the ear vein prior to nembutal in order to decrease blood coagulation. The left and right branches of the pulmonary artery are isolated from the rest of the lung tissue and cut in half to provide four ring segments from each animal. […] Changes in tension are measured on a Grass polygraph via Grass FT-03 force transducers. […]
Potencies of the compounds are determined by calculating the apparent dissociation constants (KB) for each concentration tested using the standard equation: […]
where dose ratio=antilog[(agonist-log molar EC50 without compound)-(agonist-log molar EC50 with compound)]. The KB values are converted to the negative logarithms and expressed as -log molar KB (i.e. pKB). […] The EC50 values are converted to negative logarithms and expressed as -log molar EC50. Maximum relaxation responses to ASMSP are determined by expressing the maximum response to the agonist as a percentage of the relaxation caused by papaverine.

In a further experiment the target is T2, NK2 receptor (Cavia porcellus, UniProt Q64077).
T2 construct: The trachea are removed, trimmed of excess tissue (including removal of epithelium) and cut in spiral fashion; from tissue; host or cells: guinea pig trachea strips, epithelium removed
T2 sequence (Q64077 1-402): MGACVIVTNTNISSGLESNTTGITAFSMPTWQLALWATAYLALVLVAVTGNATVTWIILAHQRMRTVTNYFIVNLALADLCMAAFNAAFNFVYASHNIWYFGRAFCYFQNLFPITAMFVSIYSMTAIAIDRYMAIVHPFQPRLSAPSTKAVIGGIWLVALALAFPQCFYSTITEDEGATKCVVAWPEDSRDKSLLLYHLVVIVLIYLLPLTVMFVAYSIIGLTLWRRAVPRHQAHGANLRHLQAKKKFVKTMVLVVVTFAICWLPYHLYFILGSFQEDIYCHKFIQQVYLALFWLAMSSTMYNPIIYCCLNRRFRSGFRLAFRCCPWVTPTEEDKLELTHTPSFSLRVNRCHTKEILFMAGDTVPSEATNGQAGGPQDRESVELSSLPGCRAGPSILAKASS
Put plainly: Guinea Pig Trachea Assay: NK2 in vitro functional assay (Test D). The following applies: -log molar KB, agonist BANK, read-out: pKB in Test D (converted). The protocol: Guinea Pig Trachea Assay: NK2 in vitro functional assay (Test D)
Male guinea pigs are killed by a sharp blow to the back of the head followed by exsanguination. The trachea are removed, trimmed of excess tissue (including removal of epithelium) and cut in spiral fashion. Each longitudinally cut tracheal segment is suspended as a strip in a water-jacketed (37.5° C.) tissue bath containing a physiological salt solution of the following composition (mM): NaCl, 119; KCl 4.6; CaCl2, 1.8; MgCl2, 0.5; NaH2 PO4, 1; NaHCO3, 25; glucose, 11; and indomethacin, 0.005 (to inhibit cyclooxygenase); gassed continuously with 95% O2-%5 CO2. […] Contractile responses are measured on a Grass polygraph via Grass FT-03 force transducers. […]
Potencies of the compounds are evaluated by calculating apparent dissociation constants (KB) for each concentration tested using the standard equation: […]
where dose ratio=antilog[(agonist -log molar EC50 without compound)-(agonist-log molar EC50 with compound)]. The KB values are converted to the negative logarithms and expressed as -log molar KB (i.e. pKB). […] The EC50 values are converted to the negative logarithms and expressed as -log molar EC50. Maximum contractile responses to BANK are determined by expressing the maximum response to BANK as a percentage of the initial contraction caused by capasacin.

The next experiment addresses T3, human NK1 receptor (Homo sapiens, UniProt P25103).
T3 construct: expressed in transfected cells; host or cells: Mouse Erythroleukemia (MEL) cells
Put plainly: SP Receptor Binding Assay (Test A). To be noted: antagonism of SP binding; human NK1 receptor expressed in MEL cells. The source says: SP Receptor Binding Assay (Test A)
The human NK1 receptor was isolated and characterized as described in: B. Hopkins, et al. "Isolation and characterization of the human lung NK1 receptor cDNA" Biochem. Biophys. Res. Comm., 1991, 180, 1110-1117; and the NK1 receptor was expressed in Mouse Erythroleukemia (MEL) cells using a procedure similar to that described in Test B below.

The next experiment has as its target T4, human NK2 receptor (Homo sapiens, UniProt P21452).
T4 construct: expressed in transfected cells; host or cells: Mouse Erythroleukemia (MEL) cells
T4 sequence (P21452 1-398): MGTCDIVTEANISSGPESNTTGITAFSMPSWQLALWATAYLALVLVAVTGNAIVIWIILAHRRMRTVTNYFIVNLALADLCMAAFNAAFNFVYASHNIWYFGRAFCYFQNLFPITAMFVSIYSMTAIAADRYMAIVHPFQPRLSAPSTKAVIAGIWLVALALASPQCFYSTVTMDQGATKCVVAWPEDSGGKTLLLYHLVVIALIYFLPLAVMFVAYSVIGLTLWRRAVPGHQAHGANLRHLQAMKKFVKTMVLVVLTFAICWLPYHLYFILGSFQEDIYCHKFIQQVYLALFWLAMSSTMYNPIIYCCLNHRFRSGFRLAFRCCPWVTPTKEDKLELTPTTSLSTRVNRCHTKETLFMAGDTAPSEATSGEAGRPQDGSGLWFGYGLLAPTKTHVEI
Put plainly: Neurokinin A (NKA) Receptor Binding Assay (Test B). To be noted: antagonism of NKA binding; human NK2 receptor expressed in MEL cells. The source says:
Neurokinin A (NKA) Receptor Binding Assay (Test B)

The Ki is a dissociation constant, usually derived from enzyme kinetics or from competition with a known ligand. Low readings indicate higher affinity, high ones lower affinity.

T1 sequence (G1SEI7 1-407): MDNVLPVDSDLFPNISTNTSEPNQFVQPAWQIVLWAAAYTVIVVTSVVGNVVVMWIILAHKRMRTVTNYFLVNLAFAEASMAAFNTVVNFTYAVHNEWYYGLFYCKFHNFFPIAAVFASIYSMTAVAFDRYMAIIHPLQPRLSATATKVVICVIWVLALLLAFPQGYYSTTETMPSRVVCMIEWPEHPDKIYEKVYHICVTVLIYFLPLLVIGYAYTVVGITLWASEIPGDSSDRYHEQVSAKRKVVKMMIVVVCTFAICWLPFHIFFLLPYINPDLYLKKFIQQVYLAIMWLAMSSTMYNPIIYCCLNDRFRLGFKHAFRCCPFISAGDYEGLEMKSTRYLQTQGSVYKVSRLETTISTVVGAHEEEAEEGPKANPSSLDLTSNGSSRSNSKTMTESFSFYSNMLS
T3 sequence (P25103 whole entry): as the sequence (G1SEI7 1-407) above, with F12S, D189N, A369P, E371D, N376T, G386C, N391D, Y402S, M405V counted along it

Consider `CC(=O)NC1(c2ccccc2)CCN(CCC(CN(Cc2cc(C(F)(F)F)cc(C(F)(F)F)c2)C(C)=O)c2ccc(Cl)c(Cl)c2)CC1` (stereo not shown) [Example 10, 4-(4-Acetamido-4-phenylpiperidino)-N-acetyl-2-(3,4-dichlorophenyl)-N-[3,5-bis(trifluoromethyl)benzyl]butylamine], for which the Kb on NK1 receptor was 955 nM; on NK2 receptor, 3160 nM.

Take `CC(=O)NC1(c2ccccc2)CCN(CCC(CNCCc2ccccc2)c2ccc(Cl)c(Cl)c2)CC1` (stereo not shown) [Example 3, 4-(4-acetamido-4-phenylpiperidino)-2-(3,4-dichlorophenyl)-N-(phenethyl)butylamine]: the inhibitory constant (Ki) was determined as 430 nM at human NK1 receptor and 13 nM at human NK2 receptor.
